Laboratory results published in patent US7906530B2, “1,7-naphthyridine derivatives as p38 MAP kinase inhibitors” (Laboratorios Almirall, S.A., priority 2006, dated 2011).

What was measured:
[1] = target: T1, human p38alfa (SAPKa) enzyme (Homo sapiens, UniProt Q16539); assay: p38alpha enzymatic inhibition assay (FRET, ATF2 phosphorylation); assay type: biochemical; conditions: 1 h pre-incubation; biotinylated ATF2 0.62 μM, ATP 60 μM; 1 h at 25° C.; read-out: p38α IC50
T1 construct: purchased University of Dundee

[2] = tested on: TNFα production in human monocytic cell line THP-1; assay: Functional assay: inhibition of LPS-induced TNFα production in THP-1 cells; assay type: cell-based; conditions: LPS 10 μg/ml, 5 h at 37° C., TNFα ELISA

T1 sequence (Q16539 whole entry): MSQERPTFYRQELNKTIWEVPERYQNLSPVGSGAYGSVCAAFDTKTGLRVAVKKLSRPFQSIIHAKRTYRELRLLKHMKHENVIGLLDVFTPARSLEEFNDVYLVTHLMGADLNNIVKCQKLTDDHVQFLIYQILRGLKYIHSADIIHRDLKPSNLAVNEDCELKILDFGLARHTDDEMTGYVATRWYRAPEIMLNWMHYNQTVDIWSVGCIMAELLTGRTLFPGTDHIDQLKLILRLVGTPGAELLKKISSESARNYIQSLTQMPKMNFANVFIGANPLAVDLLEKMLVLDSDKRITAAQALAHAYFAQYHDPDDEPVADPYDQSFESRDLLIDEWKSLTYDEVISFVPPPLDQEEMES

SMILES	IC50 [1] [nM]	IC50 [2] [nM]
CC(C)(C)N1CCC(c2cc(-c3ccc(F)cc3F)c3cc[n+]([O-])c(-c4c(F)cccc4F)c3n2)CC1 [Example 35, 2-(1-Tert-butylpiperidin-4-yl)-4-(2,4-difluorophenyl)-8-(2,6-difluorophenyl)-1,7-naphthyridine 7-oxide]	2.8	3.4
[O-][n+]1ccc2c(-c3ccc(F)cc3Cl)ccnc2c1-c1c(Cl)cccc1Cl [Example 40, 4-(2-Chloro-4-fluorophenyl)-8-(2,6-dichlorophenyl)-1,7-naphthyridine 7-oxide]	–	43.5
[O-][n+]1ccc2c(-c3ccc(F)cc3Cl)ccnc2c1-c1c(F)cccc1F [Example 39, 4-(2-Chloro-4-fluorophenyl)-8-(2,6-difluorophenyl)-1,7-naphthyridine 7-oxide]	87	63
CC(C)(C)N1CCC(c2cc(-c3ccc(F)cc3Cl)c3cc[n+]([O-])c(-c4c(F)cccc4F)c3n2)CC1 [Example 48, 2-(1-Tert-butylpiperidin-4-yl)-4-(2-chloro-4-fluorophenyl)-8-(2,6-difluorophenyl)-1,7-naphthyridine 7-oxide]	1.6	3
[O-][n+]1ccc2c(-c3ccc(F)cc3F)cc(OC3CCNCC3)nc2c1-c1c(F)cccc1F [Example 96, 4-(2,4-Difluorophenyl)-8-(2,6-difluorophenyl)-2-(piperidin-4-yloxy)-1,7-naphthyridine 7-oxide]	0.22	3.2
[O-][n+]1ccc2c(-c3ccc(F)cc3F)ccnc2c1-c1c(F)cccc1F [Example 19, 4-(2,4-Difluorophenyl)-8-(2,6-difluorophenyl)-1,7-naphthyridine 7-oxide]	–	223
[O-][n+]1ccc2c(-c3ccc(F)cc3F)cc(N3CCNCC3)nc2c1-c1c(F)cccc1F [Example 91, 4-(2,4-Difluorophenyl)-8-(2,6-difluorophenyl)-2-piperazin-1-yl-1,7-naphthyridine 7-oxide]	–	4.1
[O-][n+]1ccc2c(-c3ccccc3Cl)cc(C3CCNCC3)nc2c1-c1c(F)cccc1F [Example 52, 4-(2-Chlorophenyl)-8-(2,6-difluorophenyl)-2-piperidin-4-yl-1,7-naphthyridine 7-oxide]	–	4.2

Stronger by IC50 [2], values ahead:

IC50 [1] [nM]	IC50 [2] [nM]	SMILES
0.41	0.1	CC(C)(C)N1CCC(c2cc(-c3ccccc3Cl)c3cc[n+]([O-])c(-c4c(Cl)cccc4Cl)c3n2)CC1 [Example 59, 2-(1-Tert-butylpiperidin-4-yl)-4-(2-chlorophenyl)-8-(2,6-dichlorophenyl)-1,7-naphthyridine 7-oxide]
0.92	0.2	[O-][n+]1ccc2c(-c3ccc(F)cc3F)cc(OC3CCNCC3)nc2c1-c1c(Cl)cccc1Cl [Example 95, 8-(2,6-Dichlorophenyl)-4-(2,4-difluorophenyl)-2-(piperidin-4-yloxy)-1,7-naphthyridine 7-oxide]
–	2.9	[O-][n+]1ccc2c(-c3ccc(F)cc3Cl)cc(C3CCNCC3)nc2c1-c1c(Cl)cccc1Cl [Example 43, 4-(2-Chloro-4-fluorophenyl)-8-(2,6-dichlorophenyl)-2-piperidin-4-yl-1,7-naphthyridine 7-oxide]
0.9	2.45	[O-][n+]1ccc2c(-c3ccc(F)cc3F)cc(C3CCNCC3)nc2c1-c1c(F)cccc1F [Example 29, 4-(2,4-Difluorophenyl)-8-(2,6-difluorophenyl)-2-piperidin-4-yl-1,7-naphthyridine 7-oxide]
0.34	0.53	[O-][n+]1ccc2c(-c3ccccc3Cl)cc(C3CCNCC3)nc2c1-c1c(Cl)cccc1Cl [Example 53, 4-(2-Chlorophenyl)-8-(2,6-dichlorophenyl)-2-piperidin-4-yl-1,7-naphthyridine 7-oxide]
–	0.46	CC(C)(C)N1CCC(c2cc(-c3ccc(F)cc3Cl)c3cc[n+]([O-])c(-c4c(Cl)cccc4Cl)c3n2)CC1 [Example 49, 2-(1-Tert-butylpiperidin-4-yl)-4-(2-chloro-4-fluorophenyl)-8-(2,6-dichlorophenyl)-1,7-naphthyridine 7-oxide]
0.37	0.9	[O-][n+]1ccc2c(-c3ccc(F)cc3F)cc(NC3CCNCC3)nc2c1-c1c(Cl)cccc1Cl [Example 86, 8-(2,6-Dichlorophenyl)-4-(2,4-difluorophenyl)-N-piperidin-4-yl-1,7-naphthyridin-2-amine 7-oxide]
1.2	1.6	CC(C)(C)N1CCC(c2cc(-c3ccc(F)cc3F)c3cc[n+]([O-])c(-c4c(Cl)cccc4Cl)c3n2)CC1 [Example 36, 2-(1-Tert-butylpiperidin-4-yl)-8-(2,6-dichlorophenyl)-4-(2,4-difluorophenyl)-1,7-naphthyridine 7-oxide]
1.1	0.8	[O-][n+]1ccc2c(-c3ccc(F)cc3F)cc(N3CCNCC3)nc2c1-c1c(Cl)cccc1Cl [Example 90, 8-(2,6-Dichlorophenyl)-4-(2,4-difluorophenyl)-2-piperazin-1-yl-1,7-naphthyridine 7-oxide]
